Measurements taken from patent US12097213B2, “Sequential treatment of cancers using 6-thio-dG, checkpoint inhibitors and radiation therapy” (The Board of Regents of the University of Texas System, priority 2020, dated 2024).

Legend:
Assay type in all cases: in vivo, mouse
tumor-specific T cells = test: IFN-γ ELISPOT of splenocytes / draining lymph node cells; conditions: advanced MC38 tumors; stimulated with irradiated MC38 tumor cells
Experimental: IFN-γ enzyme-linked immunosorbent spot assay (ELISPOT). MC38 tumors were injected subcutaneously on the right flank of C57BL/6. For 6-thio-dG single treatment, 3 mg/kg 6-thio-dG was intraperitoneally given on days 7, 8 and 9; for PD-L1 blockade combination therapy in MC38 model, 3 mg/kg 6-thio-dG was given on day 10 and day 11, 50 μg PD-L1 was intraperitoneally injected on day 11. 7 days after last treatment, tumor draining lymphoid and spleen from tumor-bearing mice were collected and single-cell suspension was prepared. Irradiated MC38 tumor cells and control LLC tumor cells were used to re-stimulate the tumor-specific T cells. 1.5×10^5 draining lymph nodes cells or splenocytes and 7.5×10^4 irradiated tumor cells were co-cultured for 48 hrs, and ELISPOT assay was performed using the IFN-γ ELISPOT kit (BD Bioscience) according to the manufacturer's instructions. IFN-γ spots were enumerated with the CTL-ImmunoSpot® S6 Analyzer (Cellular Technology Limited).

MC38 tumor cells = test: MC38 tumor growth and treatment in mice
Experimental: (§1) Tumor growth and treatment. A total of 5×10^5 MC38, 5×10^5 CT26 or 1×10^6 LLC cells were inoculated subcutaneously into right dorsal flanks of the mice in 100 μL phosphate buffered saline (PBS). Tumor-bearing mice were randomly grouped into treatment groups when tumors grew to around 100 mm^3. For 6-thio-dG single treatment, 3 mg/kg 6-thio-dG was intraperitoneally given on days 7, 8 and 9 in MC38 tumor and LLC tumor and on days 5, 6, 7 for CT26 tumor. For CSF1R, NKL.1, CD4+ and CD8+ T cell depletion, 200 μg of antibodies were intraperitoneally injected 1 day before treatment initiation and then twice a week for 2 weeks. For PD-L1 blockade combination therapy in MC38 model, 6-thio-dG was given on day 10 and day 11, 50 μg PD-L1 was intraperitoneally injected on day 13 and 17. For PD-L1 blockade combination therapy in LLC model, 6-thio-dG was given on day 4, 5, 6, 10 and 11, 200 μg PD-L1 was intraperitoneally injected on day 8 and 13. Tumor volumes were measured by the length (a), width (b) and height (h) and calculated as tumor volume=abh/2.

[1] = test system: LLC murine lung tumor cells; test: LLC tumor growth and treatment in mice
Experimental: as §1, with “For 6-thio-dG single treatment, 3 mg/kg 6-thio-dG was intraperitoneally given on days 7, 8 and 9 in MC38 tumor and LLC tumor and on days 5, 6, 7 for CT26 tumor.” left out

## anti-PD-L1: fully humanized, engineered monoclonal antibody of IgG1 isotype against PD-L1 (Atezolizumab) [reference compound]
tumor-specific T cells
  tumor-specific T cell response in draining lymph nodes (IFN-γ production): little effect
MC38 tumor cells; LLC cured mice injected with MC38
  MC38 tumors in LLC cured mice: had no affect
MC38 tumor cells; tumor sizes 150-200 mm^3, 6-thio-dG 3 mg/kg days 10, 11, 50 μg anti-PD-L1 days 13 and 17
  tumor volume / tumor growth in advanced tumors: difficult to control
[1]; PD-L1 blockade resistant LLC model, 6-thio-dG 3 mg/kg days 4, 5, 6, 10, 11, 200 μg anti-PD-L1 days 8 and 13
  tumor burden: no therapeutic effect
[1]; lewis lung carcinoma, three days 6-thio-dG followed two days later with anti-PD-L1
  tumor growth (FIG. 8A): same rapid tumor growth
